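Cells were grown in 96-well plates and exposed to each compound for 48 hours at five concentrations; endpoints were interpolated linearly between bracketing concentrations, or set to the highest concentration if not reached. GI50 = concentration required for 50% inhibition of growth. Definition used: TGI = concentration required for complete inhibition of growth.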
Assays:
Assay in all cases: NCI anticancer screen, dose series, 48 h
SR leukemia = tested on: SR leukemia
MALME-3M melanoma = tested on: MALME-3M melanoma
SK-MEL-5 melanoma = tested on: SK-MEL-5 melanoma
CCRF-CEM leukemia = tested on: CCRF-CEM leukemia
LOX IMVI melanoma = tested on: LOX IMVI melanoma
SNB-19 CNS = tested on: SNB-19 CNS
MDA-MB-435 = tested on: MDA-MB-435
SF-539 CNS = tested on: SF-539 CNS
SK-MEL-28 melanoma = tested on: SK-MEL-28 melanoma
SK-MEL-2 melanoma = tested on: SK-MEL-2 melanoma

Structure (SMILES) | GI50 (SR leukemia) [nM] | TGI (SR leukemia) [µM] | GI50 (MALME-3M melanoma) [µM] | TGI (MALME-3M melanoma) [µM] | GI50 (SK-MEL-5 melanoma) [µM] | TGI (SK-MEL-5 melanoma) [µM] | GI50 (CCRF-CEM leukemia) [µM] | TGI (CCRF-CEM leukemia) [µM] | GI50 (LOX IMVI melanoma) [µM] | TGI (LOX IMVI melanoma) [µM] | GI50 (SNB-19 CNS) [µM] | TGI (SNB-19 CNS) [µM] | GI50 (MDA-MB-435) [µM] | TGI (MDA-MB-435) [µM] | GI50 (SF-539 CNS) [µM] | TGI (SF-539 CNS) [µM] | GI50 (SK-MEL-28 melanoma) [µM] | TGI (SK-MEL-28 melanoma) [µM] | GI50 (SK-MEL-2 melanoma) [µM] | TGI (SK-MEL-2 melanoma) [µM]
CC(=O)O[C@H](C[C@H](C(C)C)N(C)C(=O)[C@@H](NC(=O)[C@H]1CCCCN1C)C(C)C)c1nc(C(=O)N[C@@H](Cc2ccccc2)C[C@H](C)C(=O)O)c(CCOCc2ccccc2)s1 | < 1 | > 10 | < 0.001 | > 10 | < 0.001 | 0.00159 | < 0.001 | > 10 | < 0.001 | > 10 | < 0.001 | > 10 | < 0.001 | < 0.001 | < 0.001 | 0.00174 | 0.797 | > 10 | < 0.001 | > 5.68
N#C/C(=C/N1CCN(C(=O)c2ccco2)C1=S)C(=O)c1ccccc1 | 2840 | > 100 | 30.7 | > 100 | 8.25 | 22.2 | 41.9 | > 100 | 17.9 | > 100 | 39.7 | > 100 | 11 | 60.6 | 2.21 | 5.39 | 28 | > 100 | 3.68 | 15.8
Cc1cn2c(/C=C3\C(=O)N(C)c4ccc(O)cc43)c(C)nc2s1 | 1980 | 9.91 | 8.58 | > 100 | 3.45 | 57.6 | 6 | > 100 | 7.51 | > 100 | 3.64 | 39.1 | 1.19 | 3.92 | 5.58 | 28 | 5.15 | > 100 | 3.33 | 18.4
CCOC(=O)CNC(=O)c1ccccc1Nc1ccnc(C(F)(F)F)c1 | 19000 | 57.8 | 34.1 | > 88.8 | 14.8 | 40.4 | 7.97 | > 37.9 | 17.5 | 36.2 | 34.2 | > 100 | 36.9 | > 100 | 28 | > 100 | 28.1 | > 83.3 | 44.6 | > 72.4
COCCOc1cnc2ccn([C@H](C)c3nnc4c(F)cc(-c5cnn(C)c5)cn34)c(=O)c2c1 | > 100000 | > 100 | > 100 | > 100 | > 100 | > 100 | > 100 | > 100 | > 100 | > 100 | > 100 | > 100 | > 100 | > 100 | > 100 | > 100 | > 100 | > 100 | > 100 | > 100
